Patent US20020151678A1, “Prophylaxis and therapy of acquired immunodeficiency syndrome” (Board of Regents, The University of Texas System., priority 1987, published 2002)
Entries after “also recorded” stand apart in the source; their conditions may differ.

What was measured:
BALB/c mice = assay: ELISA for anti-peptide antibody response in sera of immunized BALB/c mice; format: in vivo; conditions: high molecular weight (multimer) forms
[1] = system: native HIV envelope protein gp160; conditions: disulfide (di-Cys) polymeric form
Excerpt: FIG. 6 contains two panels of graphs that illustrate B6C3 F1 mouse PLN cell proliferation by ^3H-TdR incorporation as described before using varying concentrations of peptide multimer and gp120 as antigens. […] PPD and unrelated peptide were used as controls. A further discussion relating to FIGS. 6-8 is found hereinafter.
The cells were harvested onto filter strips and ^3H-TdR incorporation was monitored.
T cell proliferation measured by ^3H-TdR incorporation, was also similarly assayed as a function of the T cell antigen concentration, using various amounts of native gp120 or gp160 as one control, and PPD as another control. PLN from B6C3 F1 mice were used in these studies.

Sequence	anti-peptide antibody response (in words) (BALB/c mice)	T cell response directed against the corresponding peptide and native HIV envelope protein gp160 [1]
FLGFLGAAGSTMGAASLTLTVQANQ [Peptide 63]	very low to negligible amounts of anti-peptide antibodies; also recorded: do not stimulate anti-peptide antibody production	strong T cell response
GTGPCTNVSTVQC [Peptide 116, gp160 CR-2, residues 240-252]	very low to negligible amounts of anti-peptide antibodies	
LWDQSLKPCVKLT [Peptide 111, gp160 CR-1, residues 118-131]	very low to negligible amounts of anti-peptide antibodies	
SVITQACSKVSFE [Peptide 113]	very low to negligible amounts of anti-peptide antibodies; also recorded: do not stimulate anti-peptide antibody production	strong T cell response
VYYGVPVWKEA [Peptide 104]	very low to negligible amounts of anti-peptide antibodies; also recorded: do not stimulate anti-peptide antibody production	strong T cell response
YLRDQQLLGIWGC [Peptide 61]	very low to negligible amounts of anti-peptide antibodies; also recorded: do not stimulate anti-peptide antibody production	strong T cell response
